Measured values from US8404619B2, “Particulate plant treatment composition” (Maruo Calcium Company Limited, priority 2005, dated 2013).

Key:
Assay type in all cases: in vivo
[1] = system: Welsh onion plant (Sakaiyakko); test: reducing leaf blight and improving quality, spray on Welsh onion plant; details: for Leaf blight: leaf blight index, 50 plants, sprayed three times; for Phytotoxicity: scale of 1 to 5
Procedure: The effects of a quality improver in reducing leaf blight and improving fruit quality were evaluated using a Welsh onion plant (Sakaiyakko).
That is, the quality improver of Example 1 was sprayed on the Welsh onion at the polyvalent metal concentrations shown in Table 7 over three times from early June (one-week interval) using a backpack sprayer.
The evaluation was carried out on 50 randomly selected plants. The leaf blight was determined by evaluating the degree of leaf blight based on a 4-point scale (none=0, mild=1, moderate=2, severe=3), and expressed by the following equation: leaf blight index={(1×the number of plants with mild leaf blight)+(2×the number of plants with moderate leaf blight)+(3×the number of plants with severe leaf blight)}×100/(3× the number of plants examined). In addition, plant length, plant weight, the number of leaves, and yield were evaluated. The dirt on a leaf surface was evaluated by a ratio of the surface area soiled whitish to the total surface area of the leaf on a scale of 1 to 5 (not soiled=1, slightly soiled=2, a little soiled=3, moderately soiled=4, much soiled=5). The phytotoxicity was evaluated on a scale of 1 to 5 (normal=1, slightly damaged=2, a little damaged=3, moderately damaged=4, much damaged=5).
The examinations were carried out in the same manner as in Application Example 43 except that the quality improvers of Examples 2 to 21 and Comparative Examples 1 to 4 were used instead of the quality improver of Example 1.

[2] = system: cherry fruit tree (Satonishiki); test: reducing fruit-cracking and improving fruit quality, spray on cherry fruit tree
Procedure: The effects of a quality improver in reducing fruit-cracking and improving fruit quality were evaluated using a cherry fruit tree (Satonishiki). That is, the quality improver of Example 1 was sprayed on the cherry fruit tree at the polyvalent metal concentrations shown in Table 10 over three times from early May (two-week interval). Each treatment was conducted on each branch by spraying with a backpack sprayer.
The evaluation was carried out on 50 randomly selected fruits. The incidence of fruit-cracking was expressed as a ratio of the number of fruits with cracking to the total number of fruits examined. The degree of fruit coloring was expressed as the colored area of a fruit. The sugar content was determined using a sugar refractometer. The acidity was expressed as titratable malic acid content. The dirt on a fruit surface was evaluated by a ratio of the surface area soiled whitish to the total surface area of the fruit on a scale of 1 to 5 (not soiled=1, slightly soiled=2, a little soiled=3, moderately soiled=4, much soiled=5). The phytotoxicity was evaluated on a scale of 1 to 5 (normal=1, slightly damaged=2, a little damaged=3, moderately damaged=4, much damaged=5).
The examinations were carried out in the same manner as in Application Example 64 except that the quality improvers of Examples 2 to 4, 6 to 7, 12, 14, 17 to 18, and Comparative Examples 1 to 4 were used instead of the quality improver of Example 1.

pear tree (Housui) = test: reducing water core and improving fruit quality, spray on pear tree
Procedure: The effects of a quality improver in reducing water core and improving fruit quality were evaluated using a pear tree (Housui).
That is, the quality improver of Example 1 was sprayed on the pear tree at the polyvalent metal concentrations shown in Table 14 over four times from late April (ten-day interval) and two times from middle July (ten-day interval). Each treatment was conducted on each branch by spraying with a backpack sprayer.
The evaluation was carried out on 30 randomly selected fruits. The degree of water core was evaluated by examining three cross sections of the stalk cavity part, the equatorial part, and the calyx end part of the fruit based on a 4-point scale (none=0, mild=1, moderate=2, severe=3). The result of the evaluation was expressed by the following equation: water core index={(1×the number of fruits with mild water core)+(2×the number of fruits with moderate water core)+(3×the number of fruits with severe water core)}/(the number of fruits examined). The fruit with a water core index of 2 or 3 was considered as a seriously damaged fruit. The ground color of fruit skin was determined using a color chart for Japanese pear based on a scale of 1 (immature) to 6 (overmature). The sugar content was determined using a sugar refractometer. The dirt on a fruit surface was evaluated by a ratio of the surface area soiled whitish to the total surface area of the fruit on a scale of 1 to 5 (not soiled=1, slightly soiled=2, a little soiled=3, moderately soiled=4, much soiled=5). The phytotoxicity was evaluated on a scale of 1 to 5 (normal=1, slightly damaged=2, a little damaged=3, moderately damaged=4, much damaged=5).
The examinations were carried out in the same manner as in Application Example 94 except that the quality improvers of Examples 2 to 4, 6 to 7, 12, 14, 17 to 18, and Comparative Examples 1 to 4 were used instead of the quality improver of Example 1.

## [Ca+2].[Cl-].[Cl-] [calcium chloride]
[1]; polyvalent metal 0.030 wt. %
  Leaf blight: 42.0
  Number of leaves: 30.3
  Plant length: 59.2
  Plant weight: 185
  Phytotoxicity: 4
[1]; polyvalent metal 0.075 wt. %
  Leaf blight: 40.0
  Number of leaves: 31.3
  Plant length: 60.9
  Plant weight: 189
  Phytotoxicity: 4
[2]; polyvalent metal 0.030 wt. %
  Acidity: 0.64
  Degree of fruit coloring: 79.2
  Incidence of fruit-cracking: 18.2%
  Phytotoxicity: 4
  Sugar content: 19.4
[2]; polyvalent metal 0.075 wt. %
  Acidity: 0.66
  Degree of fruit coloring: 78.4
  Incidence of fruit-cracking: 18.5%
  Phytotoxicity: 4
  Sugar content: 19.2
Pear tree (Housui); polyvalent metal 0.030 wt. %
  Ground color: 3.7
  Phytotoxicity: 4
  Seriously damaged fruit: 30.0%
  Sugar content: 12.8
  Water core index: 0.97
Pear tree (Housui); polyvalent metal 0.075 wt. %
  Ground color: 3.5
  Phytotoxicity: 4
  Seriously damaged fruit: 26.7%
  Sugar content: 12.6
  Water core index: 0.90

## O=C[O-].O=C[O-].[Ca+2] [calcium formate]
[1]; polyvalent metal 0.030 wt. %
  Leaf blight: 30.0
  Number of leaves: 34.2
  Plant length: 60.8
  Plant weight: 185
  Phytotoxicity: 3
[1]; polyvalent metal 0.075 wt. %
  Leaf blight: 28.0
  Number of leaves: 35.6
  Plant length: 62.8
  Plant weight: 191
  Phytotoxicity: 3
[2]; polyvalent metal 0.030 wt. %
  Acidity: 0.63
  Degree of fruit coloring: 80.5
  Incidence of fruit-cracking: 16.1%
  Phytotoxicity: 3
  Sugar content: 19.9
[2]; polyvalent metal 0.075 wt. %
  Acidity: 0.62
  Degree of fruit coloring: 80.3
  Incidence of fruit-cracking: 15.6%
  Phytotoxicity: 3
  Sugar content: 20.2
Pear tree (Housui); polyvalent metal 0.030 wt. %
  Ground color: 3.6
  Phytotoxicity: 3
  Seriously damaged fruit: 23.3%
  Sugar content: 13.0
  Water core index: 0.80
Pear tree (Housui); polyvalent metal 0.075 wt. %
  Ground color: 3.8
  Phytotoxicity: 3
  Seriously damaged fruit: 16.7%
  Sugar content: 13.2
  Water core index: 0.77
